The source of these data is PubChem BioAssay (NCI).

One may read the TGI as the concentration at which net growth stops. High values mean less potent growth arrest, low ones more potent growth arrest. A word on the GI50: it is the concentration giving 50% growth inhibition.

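Tested at 5 concentrations; 48 h exposure; 96-well plates; endpoints linearly interpolated, else capped at highest concentration. Abbreviation: GI50, concentration required for 50% inhibition of growth. At the TGI there is no net growth.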 Where only a bound is given, the exact number is not on record here.

Some test systems named below: BT-549 breast; CCRF-CEM leukemia; DU-145 prostate; HS 578T breast; MALME-3M melanoma; MDA-MB-231 breast; MDA-MB-435; PC-3 prostate; SF-295 CNS; UACC-257 melanoma.
Common to all, as to test: DTP human tumour cell line panel, 48 h

With `Cc1ccc(C2SC(N)=Nc3c2c(C)nn3C(=O)c2ccc(Cl)cc2)cc1` (configuration not stated), the TGI in the assay with BT-549 breast, in the assay on CCRF-CEM leukemia, in the assay with DU-145 prostate, with HS 578T breast, in the assay with MALME-3M melanoma and in the assay on MDA-MB-231 breast was greater than 10 µM in each case. Further, the TGI in the assay with MDA-MB-435, with PC-3 prostate, in the assay on SF-295 CNS and in the assay with UACC-257 melanoma was greater than 10 µM each time.

Take `CC(=O)O[C@H]1CC[C@@]2(C)C(=CC[C@H]3[C@@H]4C/C(=C\c5ccncc5)[C@H](OC(C)=O)[C@@]4(C)CC[C@@H]32)C1`: the TGI in the assay with BT-549 breast was 10.9 µM; with CCRF-CEM leukemia it was 11.2 µM; with DU-145 prostate, 29.4 µM; in the assay with HS 578T breast it was greater than 100 µM; in the assay on MALME-3M melanoma, 21.7 µM; with MDA-MB-231 breast, 41.1 µM. For the same compound, the TGI amounted to 36.5 µM in the assay with MDA-MB-435, 46.8 µM with PC-3 prostate, 19.5 µM in the assay with SF-295 CNS and 33.3 µM in the assay on UACC-257 melanoma.

Turning to `CC(=O)OC(C#N)CC(C)(C)/[N+]([O-])=[N+](\[O-])C(C)(C)CC(C#N)OC(C)=O` (configuration not stated), the TGI in the assay on BT-549 breast is 36.6 µM; in the assay on CCRF-CEM leukemia it was greater than 100 µM; with DU-145 prostate, 43.8 µM; in the assay on HS 578T breast, 55.2 µM; in the assay with MALME-3M melanoma, 47.4 µM; with MDA-MB-231 breast, 36.1 µM. Also, the concentration for total growth inhibition (TGI) is 33.8 µM with MDA-MB-435, 37.9 µM with PC-3 prostate, 80.8 µM in the assay on SF-295 CNS and 37.8 µM with UACC-257 melanoma.

`COc1cc2c(cc1O)-c1c(OC)c(O)cc3c1C(C2)N(C)CC3` (configuration not stated): the concentration for total growth inhibition (TGI) with BT-549 breast, with CCRF-CEM leukemia, in the assay with DU-145 prostate, in the assay on HS 578T breast, in the assay with MDA-MB-231 breast and in the assay on MDA-MB-435 was greater than 100 µM in each case. Moreover, the concentration for total growth inhibition (TGI) with PC-3 prostate, with SF-295 CNS and in the assay on UACC-257 melanoma was greater than 100 µM throughout.

With `Cc1ccc(Nc2cc(=O)[nH]c(=O)[nH]2)cc1CS`, the TGI in the assay on BT-549 breast, in the assay with CCRF-CEM leukemia, in the assay with HS 578T breast, with MALME-3M melanoma, in the assay on MDA-MB-231 breast and with MDA-MB-435 was greater than 100 µM in each case. Further, the concentration for total growth inhibition (TGI) with PC-3 prostate, in the assay with SF-295 CNS and in the assay on UACC-257 melanoma was greater than 100 µM in each case.

For the compound `Cc1cc(S(=O)(=O)Nc2nc(N)nc(N(C)C)n2)c(SC(C(=O)O)c2ccccc2)cc1Cl` (configuration not stated), the concentration for total growth inhibition (TGI) with BT-549 breast, with CCRF-CEM leukemia, with DU-145 prostate, in the assay with HS 578T breast, in the assay with MALME-3M melanoma and with PC-3 prostate was greater than 10 µM throughout. The TGI in the assay on SF-295 CNS and in the assay with UACC-257 melanoma was greater than 10 µM in each case.

For `O=C1C=C(NCCc2cc(Cl)c(O)c(Cl)c2)C(=O)c2[nH]cnc21`, the TGI is greater than 100 µM in the assay with BT-549 breast; greater than 100 µM with HS 578T breast; 15.9 µM in the assay with MALME-3M melanoma; greater than 100 µM with MDA-MB-231 breast; 30.3 µM in the assay with MDA-MB-435; greater than 100 µM with PC-3 prostate. In addition, the figures for the TGI with SF-295 CNS and with UACC-257 melanoma were 45.6 µM and 60 µM, respectively.

`CN1CC(S(=O)(=O)c2ccccc2)CC(S(=O)(=O)c2ccccc2)C1c1ccccc1` (configuration not stated): the TGI with BT-549 breast is 28.5 µM; in the assay with DU-145 prostate, 60.8 µM; in the assay on HS 578T breast, 84.1 µM; with MALME-3M melanoma, 27.6 µM; in the assay with MDA-MB-231 breast, 31.8 µM; with MDA-MB-435, 28.3 µM. The results for the TGI in the assay on PC-3 prostate, in the assay on SF-295 CNS and in the assay on UACC-257 melanoma were 27.1 µM, greater than 100 µM and 41 µM, respectively.

For the compound `N#CC1C(=O)NC2=C(CCOc3c2ccc2ccccc32)C1c1ccc(F)cc1` (configuration not stated), the concentration for total growth inhibition (TGI) was greater than 100 µM in the assay on BT-549 breast; greater than 100 µM in the assay on CCRF-CEM leukemia; greater than 100 µM in the assay on DU-145 prostate; 43.8 µM in the assay with HS 578T breast; 79 µM in the assay with MALME-3M melanoma; greater than 100 µM in the assay on MDA-MB-435. Moreover, the TGI with PC-3 prostate is 54.8 µM; in the assay with SF-295 CNS, 42.4 µM; in the assay on UACC-257 melanoma it was greater than 100 µM.

Consider `CCCCCCCCCCCCCCC[C@@H](O)C[N+](C)(C)CCO`, for which the TGI in the assay with BT-549 breast amounted to 3.63 µM; in the assay on CCRF-CEM leukemia, 11.5 µM; in the assay with DU-145 prostate, 48.2 µM; in the assay with HS 578T breast, 7.53 µM; in the assay with MALME-3M melanoma it was 15.4 µM; in the assay with MDA-MB-231 breast, 7.85 µM. Besides, the results for the TGI in the assay with MDA-MB-435, with SF-295 CNS and with UACC-257 melanoma were 33.4 µM, 10.1 µM and 49.2 µM, respectively.

Regarding `c1ccc(C2=NN[C@H](c3cn(-c4ccccc4)nc3-c3ccccc3)C2)cc1`, the GI50 with BT-549 breast is 5.9 µM; with CCRF-CEM leukemia it was greater than 100 µM; in the assay with DU-145 prostate it was 71.8 µM; in the assay with HS 578T breast it was 2.63 µM; with MALME-3M melanoma it was 8.98 µM; in the assay on MDA-MB-231 breast, 3.86 µM. The GI50 in the assay on MDA-MB-435 was greater than 100 µM; in the assay with PC-3 prostate it was 6.22 µM; in the assay with UACC-257 melanoma, greater than 100 µM. Also, the TGI in the assay with BT-549 breast was greater than 100 µM; in the assay on CCRF-CEM leukemia, greater than 100 µM; in the assay on DU-145 prostate, greater than 100 µM; with HS 578T breast it was 7.45 µM; in the assay on MALME-3M melanoma it was greater than 100 µM; in the assay with MDA-MB-231 breast it was greater than 100 µM. In addition, the TGI in the assay with MDA-MB-435, with PC-3 prostate and in the assay on UACC-257 melanoma was greater than 100 µM in each case.

As to `Cc1ccc(C(=O)c2[nH]c(Nc3ccc(Cl)cc3)c(C(=S)Nc3ccccc3)c2N)cc1`, the concentration for total growth inhibition (TGI) is 20.5 µM with BT-549 breast; greater than 100 µM with CCRF-CEM leukemia; 24.8 µM in the assay on DU-145 prostate; 19.8 µM in the assay on MALME-3M melanoma; 24.2 µM in the assay on MDA-MB-231 breast; 19.7 µM in the assay with MDA-MB-435. Moreover, the TGI with PC-3 prostate was 23.3 µM; in the assay on SF-295 CNS it was 5.27 µM; in the assay with UACC-257 melanoma it was 43.7 µM.

Turning to `COC(=O)CCSC1=CC(=O)c2nc3ccccc3c3ccnc1c23`, the TGI in the assay on BT-549 breast is 33 µM; in the assay on CCRF-CEM leukemia, greater than 26.6 µM; with DU-145 prostate it was 48.1 µM; in the assay on HS 578T breast, 67.8 µM; with MDA-MB-231 breast it was greater than 70.7 µM; in the assay on MDA-MB-435, greater than 27.5 µM. For the same compound, the values for the TGI with PC-3 prostate, in the assay with SF-295 CNS and in the assay on UACC-257 melanoma were 36.7 µM, greater than 100 µM and 33 µM, respectively.
